Measured values from article PMC6001238, “Iterative Chemical Engineering of Vancomycin Leads to Novel Vancomycin Analogs With a High in Vitro Therapeutic Index” (Frontiers in Microbiology, 2018).
Converted amounts (≈) assume the structure as drawn.

What was measured:
E. faecalis VSE 1 = assay: MIC, broth microdilution, vancomycin-sensitive E. faecalis (VSE 1); type: cell-based, Enterococcus faecalis; conditions: for MIC: Enterococcus faecalis VSE 1 (vancomycin-sensitive), read-out: MIC; for MIC-fold improvement vs. vancomycin: VSE 1, ratio of MIC of vancomycin and MIC of analogue
Method in brief: (§1)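 Broth microdilution per CLSI; controls = ultrapure water, non-inoculated broth. One set: + vancomycin 10 μM final alongside test analogue/control drug.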

E. faecalis VRE 6 = assay: MIC, broth microdilution, vancomycin-resistant E. faecalis VRE 6 (VanA); type: cell-based, Enterococcus faecalis; conditions: for MIC: Enterococcus faecalis VRE 6 (vancomycin-resistant), read-out: MIC; for MIC-fold improvement vs. vancomycin: VRE 6, ratio of MIC of vancomycin and MIC of analogue
Method in brief: as §1

E. faecalis VRE 53 = assay: MIC, broth microdilution, vancomycin-resistant E. faecalis VRE 53 (VanA); type: cell-based, Enterococcus faecalis; conditions: for MIC: Enterococcus faecalis VRE 53 (vancomycin-resistant), read-out: MIC; for MIC-fold improvement vs. vancomycin: VRE 53, ratio of MIC of vancomycin and MIC of analogue
Method in brief: as §1

E. faecalis VRE 29 = assay: MIC, broth microdilution, vancomycin-resistant E. faecalis VRE 29 (VanA); type: cell-based, Enterococcus faecalis; conditions: for MIC: Enterococcus faecalis VRE 29 (vancomycin-resistant), read-out: MIC; for MIC-fold improvement vs. vancomycin: VRE 29, ratio of MIC of vancomycin and MIC of analogue
Method in brief: as §1

E. faecalis VRE 37 = assay: MIC, broth microdilution, vancomycin-resistant E. faecalis VRE 37 (VanA); type: cell-based, Enterococcus faecalis; conditions: for MIC: Enterococcus faecalis VRE 37 (vancomycin-resistant), read-out: MIC; for MIC-fold improvement vs. vancomycin: VRE 37, ratio of MIC of vancomycin and MIC of analogue
Method in brief: as §1

[1] = test system: Murine leukemia (L1210) cells; assay: Cytostatic activity, L1210 cell proliferation; type: cell-based; conditions: mean ± SD of three experiments; highest concentration tested 250 µM; 2 days; read-out: Toxicity (IC50) L1210
Method in brief: (§2)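 Readout: Coulter cell number after drug exposure at 37°C. Durations differ by line (L1210 2 days; CEM 3 days; HeLa 4 days). Stock suspension 300,000–500,000 cells/mL, diluted by mixing with compound. Endpoint: IC50 vs negative control.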

[2] = test system: human T-lymphocyte (CEM) cells; assay: Cytostatic activity, CEM cell proliferation; type: cell-based; conditions: mean ± SD of three experiments; highest concentration tested 250 µM; 3 days; read-out: Toxicity (IC50) CEM
Method in brief: as §2

[3] = test system: human cervix carcinoma (HeLa) cells; assay: Cytostatic activity, HeLa cell proliferation; type: cell-based; conditions: mean ± SD of three experiments; highest concentration tested 250 µM; 4 days; read-out: Toxicity (IC50) HeLa
Method in brief: as §2

[4] = test system: L1210, CEM and HeLa cell lines; assay: Cytostatic activity, average or summary over L1210, CEM and HeLa; type: cell-based; conditions: average of L1210, CEM and HeLa; read-out: Toxicity (IC50) Average
Method in brief: as §2

[5] = test system: S. aureus VSSA (ATCC 6538); assay: MIC, broth microdilution, vancomycin-sensitive S. aureus (VSSA/MSSA, ATCC 6538); type: cell-based, Staphylococcus aureus; conditions: for MIC: Staphylococcus aureus VSSA, read-out: MIC; for MIC-fold improvement vs. vancomycin: VSSA, ratio of MIC of vancomycin and MIC of analogue
Method in brief: as §1

S. aureus VISA/HIP5827 = assay: MIC, broth microdilution, vancomycin-intermediate S. aureus VISA HIP5827; type: cell-based, Staphylococcus aureus; conditions: for MIC: Staphylococcus aureus VISA/HIP5827, read-out: MIC; for MIC-fold improvement vs. vancomycin: VISA/HIP5827, ratio of MIC of vancomycin and MIC of analogue
Method in brief: as §1

S. aureus VRSA = assay: MIC, broth microdilution, vancomycin-resistant S. aureus (VRSA); type: cell-based, Staphylococcus aureus; conditions: for MIC: Staphylococcus aureus VRSA, read-out: MIC; for MIC-fold improvement vs. vancomycin: VRSA, ratio of MIC of vancomycin and MIC of analogue
Method in brief: as §1

MRSA KS2 = assay: MIC, broth microdilution, MRSA KS2; type: cell-based, Staphylococcus aureus; conditions: for MIC-fold improvement vs. vancomycin: MRSA KS2, ratio of MIC of vancomycin and MIC of analogue; for MIC: Staphylococcus aureus MRSA KS2, read-out: MIC
Method in brief: as §1

MRSA KS6 = assay: MIC, broth microdilution, MRSA KS6; type: cell-based, Staphylococcus aureus; conditions: for MIC-fold improvement vs. vancomycin: MRSA KS6, ratio of MIC of vancomycin and MIC of analogue; for MIC: Staphylococcus aureus MRSA KS6, read-out: MIC
Method in brief: as §1

MRSA KS89 = assay: MIC, broth microdilution, MRSA KS89; type: cell-based, Staphylococcus aureus; conditions: for MIC-fold improvement vs. vancomycin: MRSA KS8, ratio of MIC of vancomycin and MIC of analogue; for MIC: Staphylococcus aureus MRSA KS8, read-out: MIC
Method in brief: as §1

MRSA KS1 = assay: MIC, broth microdilution, MRSA KS1; type: cell-based, Staphylococcus aureus; conditions: for MIC-fold improvement vs. vancomycin: MRSA KS1, ratio of MIC of vancomycin and MIC of analogue; for MIC: Staphylococcus aureus MRSA KS1, read-out: MIC
Method in brief: as §1

SMILES | MIC (E. faecalis VSE 1) [µM] | MIC-fold improvement vs. vancomycin (E. faecalis VSE 1) | MIC (E. faecalis VRE 6) [µM] | MIC-fold improvement vs. vancomycin (E. faecalis VRE 6) | MIC (E. faecalis VRE 53) [µM] | MIC (E. faecalis VRE 29) [µM] | MIC (E. faecalis VRE 37) [µM] | MIC-fold improvement vs. vancomycin (E. faecalis VRE 37) | IC50 [1] [µM] | IC50 [2] [µM] | IC50 [3] [µM] | IC50 [4] [µM] | MIC [5] [µM] | MIC-fold improvement vs. vancomycin [5] | MIC (S. aureus VISA/HIP5827) [µM] | MIC-fold improvement vs. vancomycin (S. aureus VISA/HIP5827) | MIC (S. aureus VRSA) [µM] | MIC-fold improvement vs. vancomycin (S. aureus VRSA) | MIC-fold improvement vs. vancomycin (MRSA KS2) | MIC (MRSA KS2) [µM] | further results
CN[C@H](CC(C)C)C(=O)N[C@H]1C(=O)N[C@@H](CC(N)=O)C(=O)N[C@H]2C(=O)N[C@H]3C(=O)N[C@H](C(=O)N[C@H](C(=O)NCC(=O)Nc4ccc(Cl)cc4)c4cc(O)cc(O)c4-c4cc3ccc4O)[C@H](O)c3ccc(c(Cl)c3)Oc3cc2cc(c3O[C@@H]2O[C@H](CO)[C@@H](O)[C@H](O)[C@H]2O[C@H]2C[C@](C)(N)[C@H](O)[C@H](C)O2)Oc2ccc(cc2Cl)[C@H]1O [Vanc-6] | 0.39 (≈ 0.63 µg/mL) | 4 | 3.13 (≈ 5.06 µg/mL) | 64 | 12.5 (≈ 20.2 µg/mL) | 6.25 (≈ 10.1 µg/mL) | 12.5 (≈ 20.2 µg/mL) | 64 | > 250 | 159 ± 13 | 91 ± 33 | 167 | 0.39 (≈ 0.63 µg/mL) | 2 | 0.39 (≈ 0.63 µg/mL) | 16 | 3.13 (≈ 5.06 µg/mL) | 32 | 2 | 0.39 (≈ 0.63 µg/mL) | MIC-fold improvement vs. vancomycin (MRSA KS6): 2; MIC (MRSA KS6): 0.39 µM (≈ 0.63 µg/mL); MIC-fold improvement vs. vancomycin (MRSA KS89): 2; MIC (MRSA KS89): 0.39 µM (≈ 0.63 µg/mL); MIC-fold improvement vs. vancomycin (MRSA KS1): 2; MIC (MRSA KS1): 0.39 µM (≈ 0.63 µg/mL)
CNC(CC(C)C)C(=O)NC1C(=O)NC(CC(N)=O)C(=O)NC2C(=O)NC3C(=O)NC(C(=O)NC(C(=O)NCC(=O)Nc4ccc(O)cc4)c4cc(O)cc(O)c4-c4cc3ccc4O)C(O)c3ccc(c(Cl)c3)Oc3cc2cc(c3OC2OC(CO)C(O)C(O)C2OC2CC(C)(N)C(O)C(C)O2)Oc2ccc(cc2Cl)C1O (stereo not shown) [Vanc-1] | 0.78 (≈ 1.25 µg/mL) | 2 | 25 (≈ 39.9 µg/mL) | 8 | 25 (≈ 39.9 µg/mL) | >50 | 50 (≈ 79.9 µg/mL) | 16 | > 250 | > 250 | 72 ± 10 | 191 | 0.78 (≈ 1.25 µg/mL) | 1 | 0.78 (≈ 1.25 µg/mL) | 8 | 25 (≈ 39.9 µg/mL) | 4 | 1 | 0.78 (≈ 1.25 µg/mL) | MIC-fold improvement vs. vancomycin (E. faecalis VRE 53): 16; MIC-fold improvement vs. vancomycin (E. faecalis VRE 29): <8; MIC-fold improvement vs. vancomycin (MRSA KS6): 1; MIC (MRSA KS6): 0.78 µM (≈ 1.25 µg/mL); MIC-fold improvement vs. vancomycin (MRSA KS89): 1; MIC (MRSA KS89): 0.78 µM (≈ 1.25 µg/mL); MIC-fold improvement vs. vancomycin (MRSA KS1): 1; MIC (MRSA KS1): 0.78 µM (≈ 1.25 µg/mL)
CNC(CC(C)C)C(=O)NC1C(=O)NC(CC(N)=O)C(=O)NC2C(=O)NC3C(=O)NC(C(=O)NC(C(=O)NCCNC(=O)C4c5ccccc5-c5ccccc54)c4cc(O)cc(O)c4-c4cc3ccc4O)C(O)c3ccc(c(Cl)c3)Oc3cc2cc(c3OC2OC(CO)C(O)C(O)C2OC2CC(C)(N)C(O)C(C)O2)Oc2ccc(cc2Cl)C1O (stereo not shown) [Vanc-46] | 0.78 (≈ 1.31 µg/mL) | 2 | 6.25 (≈ 10.5 µg/mL) | 32 | 25 (≈ 42.1 µg/mL) | 25 (≈ 42.1 µg/mL) | 25 (≈ 42.1 µg/mL) | 16 | 197 ± 18 | 235 ± 21 | 108 ± 9 | 180 | 0.78 (≈ 1.31 µg/mL) | 1 | 1.56 (≈ 2.63 µg/mL) | 4 | 6.25 (≈ 10.5 µg/mL) | 16 | 2 | 0.39 (≈ 0.657 µg/mL) | MIC-fold improvement vs. vancomycin (E. faecalis VRE 53): 16; MIC-fold improvement vs. vancomycin (E. faecalis VRE 29): 16; MIC-fold improvement vs. vancomycin (MRSA KS6): 0.25; MIC (MRSA KS6): 3.13 µM (≈ 5.27 µg/mL); MIC-fold improvement vs. vancomycin (MRSA KS89): 2; MIC (MRSA KS89): 0.39 µM (≈ 0.657 µg/mL); MIC-fold improvement vs. vancomycin (MRSA KS1): 1; MIC (MRSA KS1): 0.78 µM (≈ 1.31 µg/mL)
